Laboratory results reported in ChEMBL document CHEMBL4145492, “Discovery of biphenyl-substituted diarylpyrimidines as non-nucleoside reverse transcriptase inhibitors with high potency against wild-type and mutant HIV-1” (Eur J Med Chem, 2018).

System: Human immunodeficiency virus 1
Assay: Antiviral activity against wild type HIV1 3B infected in human MT4 cells assessed as reduction of virus-induced cytopathic effect after 4 days by MTT assay
Assay type: functional, organism-based
Conditions: Human immunodeficiency virus 1, 3B, MT4, 96 h
Cc1cc(-c2c(C)cccc2C)cc(C)c1Nc1ccnc(Nc2ccc(C#N)cc2)n1 gave an EC50 of 0.0071 µM.
For Cc1cc(-c2ccccc2)cc(C)c1Nc1ccnc(Nc2ccc(C#N)cc2)n1, the EC50 was 0.0028 µM.
Cc1cc(-c2cccc(F)c2)cc(C)c1Nc1ccnc(Nc2ccc(C#N)cc2)n1 showed an EC50 of 0.0017 µM.
Cc1cc(-c2ccccc2Cl)cc(C)c1Nc1ccnc(Nc2ccc(C#N)cc2)n1 showed an EC50 of 0.0026 µM.
Compound Cc1cccc(-c2cc(C)c(Nc3ccnc(Nc4ccc(C#N)cc4)n3)c(C)c2)c1 has an EC50 of 0.0059 µM.
With Cc1cc(-c2ccccc2C(F)(F)F)cc(C)c1Nc1ccnc(Nc2ccc(C#N)cc2)n1 the EC50 was 0.0069 µM.
Compound Cc1ccc(-c2cc(C)c(Nc3ccnc(Nc4ccc(C#N)cc4)n3)c(C)c2)cc1 has an EC50 of 0.0036 µM.
Work on Cc1cc(-c2ccc(Cl)cc2)cc(C)c1Nc1ccnc(Nc2ccc(C#N)cc2)n1 yielded an EC50 of 0.0037 µM.
With COc1ccc(-c2cc(C)c(Nc3ccnc(Nc4ccc(C#N)cc4)n3)c(C)c2)cc1 the EC50 was 0.0024 µM.
Cc1cc(C)cc(-c2cc(C)c(Nc3ccnc(Nc4ccc(C#N)cc4)n3)c(C)c2)c1 gave an EC50 of 0.023 µM.
Work on Cc1cc(-c2ccc(C(F)(F)F)cc2)cc(C)c1Nc1ccnc(Nc2ccc(C#N)cc2)n1 yielded an EC50 of 0.01 µM.
For Cc1cc(-c2cc(F)cc(F)c2)cc(C)c1Nc1ccnc(Nc2ccc(C#N)cc2)n1, the EC50 was 0.033 µM.
For Cc1cc(-c2cc(Cl)cc(Cl)c2)cc(C)c1Nc1ccnc(Nc2ccc(C#N)cc2)n1, the EC50 was 0.034 µM.

System: not listed separately
Assay: Cytotoxicity against human MT4 cells assessed as reduction in cell viability after 4 days by MTT assay
Assay type: cell-based
Conditions: not given
In the case of Cc1cc(-c2c(C)cccc2C)cc(C)c1Nc1ccnc(Nc2ccc(C#N)cc2)n1, the CC50 at 96 h is reported as 2.59 µM.
Compound Cc1cc(-c2ccccc2)cc(C)c1Nc1ccnc(Nc2ccc(C#N)cc2)n1 has a CC50 at 96 h of 4.17 µM.
Work on Cc1cc(-c2cccc(F)c2)cc(C)c1Nc1ccnc(Nc2ccc(C#N)cc2)n1 yielded a CC50 at 96 h of 4.12 µM.
Work on Cc1cc(-c2ccccc2Cl)cc(C)c1Nc1ccnc(Nc2ccc(C#N)cc2)n1 yielded a CC50 at 96 h of 3.99 µM.
For Cc1cccc(-c2cc(C)c(Nc3ccnc(Nc4ccc(C#N)cc4)n3)c(C)c2)c1, the CC50 at 96 h was 3.67 µM.
With Cc1cc(-c2ccccc2C(F)(F)F)cc(C)c1Nc1ccnc(Nc2ccc(C#N)cc2)n1 the CC50 at 96 h was 4.21 µM.
With Cc1ccc(-c2cc(C)c(Nc3ccnc(Nc4ccc(C#N)cc4)n3)c(C)c2)cc1 the CC50 at 96 h was 5.57 µM.
Work on Cc1cc(-c2ccc(Cl)cc2)cc(C)c1Nc1ccnc(Nc2ccc(C#N)cc2)n1 yielded a CC50 at 96 h of 4.19 µM.
COc1ccc(-c2cc(C)c(Nc3ccnc(Nc4ccc(C#N)cc4)n3)c(C)c2)cc1 gave a CC50 at 96 h of 2.89 µM.
Cc1cc(C)cc(-c2cc(C)c(Nc3ccnc(Nc4ccc(C#N)cc4)n3)c(C)c2)c1 gave a CC50 at 96 h of 4.14 µM.
Compound Cc1cc(-c2ccc(C(F)(F)F)cc2)cc(C)c1Nc1ccnc(Nc2ccc(C#N)cc2)n1 has a CC50 at 96 h of 4.16 µM.
In the case of Cc1cc(-c2cc(F)cc(F)c2)cc(C)c1Nc1ccnc(Nc2ccc(C#N)cc2)n1, the CC50 at 96 h is reported as 3.91 µM.
In the case of Cc1cc(-c2cc(Cl)cc(Cl)c2)cc(C)c1Nc1ccnc(Nc2ccc(C#N)cc2)n1, the CC50 at 96 h is reported as 4.29 µM.

System: Human immunodeficiency virus 2
Assay: Antiviral activity against HIV2 ROD infected in human MT4 cells assessed as reduction of virus-induced cytopathic effect after 4 days by MTT assay
Assay type: functional, organism-based
Conditions: Human immunodeficiency virus 2, ISOLATE ROD, MT4, 96 h
In the case of Cc1cc(-c2c(C)cccc2C)cc(C)c1Nc1ccnc(Nc2ccc(C#N)cc2)n1, the EC50 is reported as greater than 2.59 µM.
In the case of Cc1cc(-c2ccccc2)cc(C)c1Nc1ccnc(Nc2ccc(C#N)cc2)n1, the EC50 is reported as greater than 4.17 µM.
For Cc1cc(-c2cccc(F)c2)cc(C)c1Nc1ccnc(Nc2ccc(C#N)cc2)n1, the EC50 was greater than 4.12 µM.
Work on Cc1cc(-c2ccccc2Cl)cc(C)c1Nc1ccnc(Nc2ccc(C#N)cc2)n1 yielded an EC50 greater than 3.99 µM.
Compound Cc1cccc(-c2cc(C)c(Nc3ccnc(Nc4ccc(C#N)cc4)n3)c(C)c2)c1 has an EC50 greater than 3.67 µM.
Work on Cc1cc(-c2ccccc2C(F)(F)F)cc(C)c1Nc1ccnc(Nc2ccc(C#N)cc2)n1 yielded an EC50 greater than 4.21 µM.
Compound Cc1ccc(-c2cc(C)c(Nc3ccnc(Nc4ccc(C#N)cc4)n3)c(C)c2)cc1 has an EC50 greater than 5.57 µM.
For Cc1cc(-c2ccc(Cl)cc2)cc(C)c1Nc1ccnc(Nc2ccc(C#N)cc2)n1, the EC50 was greater than 4.19 µM.
Work on COc1ccc(-c2cc(C)c(Nc3ccnc(Nc4ccc(C#N)cc4)n3)c(C)c2)cc1 yielded an EC50 greater than 2.89 µM.
With Cc1cc(C)cc(-c2cc(C)c(Nc3ccnc(Nc4ccc(C#N)cc4)n3)c(C)c2)c1 the EC50 was greater than 4.14 µM.
For Cc1cc(-c2ccc(C(F)(F)F)cc2)cc(C)c1Nc1ccnc(Nc2ccc(C#N)cc2)n1, the EC50 was greater than 4.16 µM.
For Cc1cc(-c2cc(F)cc(F)c2)cc(C)c1Nc1ccnc(Nc2ccc(C#N)cc2)n1, the EC50 was greater than 3.91 µM.
Cc1cc(-c2cc(Cl)cc(Cl)c2)cc(C)c1Nc1ccnc(Nc2ccc(C#N)cc2)n1 showed an EC50 greater than 4.29 µM.

System: not listed separately
Assay: Selectivity index, ratio of CC50 for human MT4 cells to EC50 for wild type HIV1 3B
Assay type: toxicity
Conditions: read-out: Ratio CC50/EC50
Cc1cc(-c2c(C)cccc2C)cc(C)c1Nc1ccnc(Nc2ccc(C#N)cc2)n1 gave a selectivity ratio of 364.
Cc1cc(-c2ccccc2)cc(C)c1Nc1ccnc(Nc2ccc(C#N)cc2)n1 gave a selectivity ratio of 1520.
Compound Cc1cc(-c2cccc(F)c2)cc(C)c1Nc1ccnc(Nc2ccc(C#N)cc2)n1 has a selectivity ratio of 2380.
Cc1cc(-c2ccccc2Cl)cc(C)c1Nc1ccnc(Nc2ccc(C#N)cc2)n1 showed a selectivity ratio of 1150.
Compound Cc1cccc(-c2cc(C)c(Nc3ccnc(Nc4ccc(C#N)cc4)n3)c(C)c2)c1 has a selectivity ratio of 622.
For Cc1cc(-c2ccccc2C(F)(F)F)cc(C)c1Nc1ccnc(Nc2ccc(C#N)cc2)n1, the selectivity ratio was 606.
With Cc1ccc(-c2cc(C)c(Nc3ccnc(Nc4ccc(C#N)cc4)n3)c(C)c2)cc1 the selectivity ratio was 1540.
Work on Cc1cc(-c2ccc(Cl)cc2)cc(C)c1Nc1ccnc(Nc2ccc(C#N)cc2)n1 yielded a selectivity ratio of 1130.
COc1ccc(-c2cc(C)c(Nc3ccnc(Nc4ccc(C#N)cc4)n3)c(C)c2)cc1 showed a selectivity ratio of 1200.
Compound Cc1cc(C)cc(-c2cc(C)c(Nc3ccnc(Nc4ccc(C#N)cc4)n3)c(C)c2)c1 has a selectivity ratio of 177.
Cc1cc(-c2ccc(C(F)(F)F)cc2)cc(C)c1Nc1ccnc(Nc2ccc(C#N)cc2)n1 showed a selectivity ratio of 418.
Cc1cc(-c2cc(F)cc(F)c2)cc(C)c1Nc1ccnc(Nc2ccc(C#N)cc2)n1 showed a selectivity ratio of 120.
For Cc1cc(-c2cc(Cl)cc(Cl)c2)cc(C)c1Nc1ccnc(Nc2ccc(C#N)cc2)n1, the selectivity ratio was 125.

Target: Human immunodeficiency virus type 1 reverse transcriptase (Human immunodeficiency virus 1, UniProt Q72547)
Assay: Inhibition of recombinant wild type HIV1 reverse transcriptase p66/p51 using poly (rA)/anoligo (dT)16 as template/primer assessed as inhibition of biotin-dUTP incorporation after 40 mins by Pico-Green staining based fluorescence assay
Conditions: not given
In the case of Cc1cc(-c2c(C)cccc2C)cc(C)c1Nc1ccnc(Nc2ccc(C#N)cc2)n1, the IC50 is reported as 0.037 µM.
In the case of Cc1cc(-c2ccccc2)cc(C)c1Nc1ccnc(Nc2ccc(C#N)cc2)n1, the IC50 is reported as 0.016 µM.
For Cc1cc(-c2cccc(F)c2)cc(C)c1Nc1ccnc(Nc2ccc(C#N)cc2)n1, the IC50 was 0.012 µM.
In the case of Cc1cc(-c2ccccc2Cl)cc(C)c1Nc1ccnc(Nc2ccc(C#N)cc2)n1, the IC50 is reported as 0.02 µM.
With Cc1cccc(-c2cc(C)c(Nc3ccnc(Nc4ccc(C#N)cc4)n3)c(C)c2)c1 the IC50 was 0.03 µM.
Work on Cc1cc(-c2ccccc2C(F)(F)F)cc(C)c1Nc1ccnc(Nc2ccc(C#N)cc2)n1 yielded an IC50 of 0.046 µM.
With Cc1ccc(-c2cc(C)c(Nc3ccnc(Nc4ccc(C#N)cc4)n3)c(C)c2)cc1 the IC50 was 0.019 µM.
In the case of Cc1cc(-c2ccc(Cl)cc2)cc(C)c1Nc1ccnc(Nc2ccc(C#N)cc2)n1, the IC50 is reported as 0.026 µM.
With COc1ccc(-c2cc(C)c(Nc3ccnc(Nc4ccc(C#N)cc4)n3)c(C)c2)cc1 the IC50 was 0.027 µM.
In the case of Cc1cc(C)cc(-c2cc(C)c(Nc3ccnc(Nc4ccc(C#N)cc4)n3)c(C)c2)c1, the IC50 is reported as 0.116 µM.
For Cc1cc(-c2ccc(C(F)(F)F)cc2)cc(C)c1Nc1ccnc(Nc2ccc(C#N)cc2)n1, the IC50 was 0.067 µM.
Cc1cc(-c2cc(F)cc(F)c2)cc(C)c1Nc1ccnc(Nc2ccc(C#N)cc2)n1 gave an IC50 of 0.052 µM.
For Cc1cc(-c2cc(Cl)cc(Cl)c2)cc(C)c1Nc1ccnc(Nc2ccc(C#N)cc2)n1, the IC50 was 0.046 µM.

System: Human immunodeficiency virus 1
Assay: Potency index, ratio of nevirapine EC50 to test compound EC50 for wild type HIV1 3B infected in human MT4 cells
Assay type: functional
Conditions: not given
In the case of Cc1cc(-c2ccccc2)cc(C)c1Nc1ccnc(Nc2ccc(C#N)cc2)n1, the “Ratio EC50” value is reported as 10.
